pEC50: −log10 of the molar value. Where a name gives a salt, the structure may show the parent alone.
Tested on: NQO1 specific enzyme activity in BEAS-2B cells
Experiment: BEAS-2B NQO1 MTT assay
Assay type: cell-based
Details: BEAS-2B cells, 48 hours with compound, MTT readout; formic acid salt; read-out: EC50 of NQO1 specific activity induction
Method in brief: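 BEAS-2B cells treated with compound 48 h at 37° C, 5% CO2, then lysed; NQO1 activity in lysate measured kinetically by MTT cocktail at Absorbance 570 nm over 30 min. EC50 for induction from Delta OD/min versus log concentration, 3-parameter fit; Cell Titer Glo run on lysate aliquot.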

Compound	pEC50
Cc1ccc(C(c2ccc3c(nnn3C)c2C)C(C)(C)C(=O)O)cc1Cn1ccnc1CN1CCCCCC1 (centres unmarked) [Example 151, 3-(3-((2-(Azepan-1-ylmethyl)-1H-imidazol-1-yl)methyl)-4-methylphenyl)-3-(1,4-dimethyl-1H-benzo-[d][1,2,3]triazol-5-yl)-2,2-domethylpropanoic acid, 0.3 formic acid salt]	8.00 to 9.00

Same assay, conditions: BEAS-2B cells, 48 hours with compound, MTT readout; trifluoroacetic acid salt; read-out: EC50 of NQO1 specific activity induction

Compound	pEC50
Cc1ccc(C(c2ccc3c(nnn3C)c2C)C(C)(C)C(=O)O)cc1Cn1ccnc1CN1CCCCCC1 (centres unmarked) [Example 141, 3-(3-((2-(Azepan-1-ylmethyl)-1H-imidazol-1-yl)methyl)-4-methylphenyl)-3-(1,4-dimethyl-1H-benzo[d][1,2,3]triazol-5-yl)-2,2-dimethylpropanoic acid, trifluoroacetic acid salt]	5.00 to 6.00

Same assay, conditions: Homo sapiens, BEAS-2B, 48 h, BEAS-2B cells, 48 hours with compound, MTT readout; read-out: EC50 of NQO1 specific activity induction

Compound	pEC50
Cc1ccc(C(CC(=O)O)c2ccc3c(nnn3C)c2C)cc1Cn1ccnc1CC1CCOCC1 (centres unmarked) [Example 129, 3-(1,4-Dimethyl-1H-Benzo[d][1,2,3]triazol-5-yl)-3-(4-methyl-3-((2-((tetrahydro-2H-pyran-4-yl)methyl)-1H-imidazol-1-yl)methyl)phenyl)propanoic Acid]	6.00 to 7.00
Cc1ccc(C(CCc2cn(C)nn2)CC(=O)O)cc1Cn1ccnc1CC1CCCCC1 (centres unmarked) [Example 130, 3-(3-((2-(Cyclohexylmethyl)-1H-imidazol-1-yl)methyl)-4-methylphenyl)-5-(1-methyl-1H-1,2,3-triazol-4-yl)pentanoic Acid]	6.00 to 7.00
Cc1ccc(C(c2ccc3c(nnn3C)c2C)C(C)(C)C(=O)O)cc1Cn1ccnc1CC1CCCCCC1 (centres unmarked) [Example 131, 3-(3-((2-(Cycloheptylmethyl)-1H-imidazol-1-yl)methyl)-4-methylphenyl)-3-(1,4-dimethyl-1H-benzo[d][1,2,3]triazol-5-yl)-2,2-dimethylpropanoic acid]	6.00 to 7.00
CCC1CCC(Cc2nccn2Cc2cc(C(CC(=O)O)c3ccc4c(nnn4C)c3C)ccc2C)CC1 (centres unmarked) [Example 132, 3-(1,4-Dimethyl-1H-benzo[d][1,2,3]triazol-5-yl)-3-(3-((2-((4-ethylcyclohexyl)methyl)-1H-imidazol-1-yl)methyl)-4-methylphenyl)propanoic Acid]	5.00 to 6.00
Cc1ccc(C(CC(=O)O)c2ccc3c(nnn3C)c2C)cc1Cn1ccnc1C(C)C1CCCCC1 (centres unmarked) [Example 133, Ammonium 3-(3-((2-(1-cyclohexylethyl)-1H-imidazol-1-yl)methyl)-4-methylphenyl)-3-(1,4-dimethyl-1H-benzo[d][1,2,3]triazol-5-yl)propanoate]	6.00 to 7.00
Cc1ccc(C(CC(=O)O)c2ccc3c(nnn3C)c2C)cc1Cc1nnnn1CC1CCCCC1 (centres unmarked) [Example 134, 3-(3-((1-(Cyclohexylmethyl)-1H-tetrazol-5-yl)methyl)-4-methylphenyl)-3-(1,4-dimethyl-1H-benzo[d][1,2,3]triazol-5-yl)propanoic acid, hydrochloride salt]	6.00 to 7.00
Cc1ccc(C(CC(=O)O)c2ccc(F)cc2C)cc1Cn1ccnc1CC1CCCCC1 (centres unmarked) [Example 135, 3-(3-((2-(Cyclohexylmethyl)-1H-imidazol-1-yl)methyl)-4-methylphenyl)-3-(4-fluoro-2-methylphenyl)propanoic Acid]	7.00 to 8.00
Cc1ccc(C(CC(=O)O)c2ccc3c(nnn3C)c2C)cc1Cn1cnc(CC2CCCCC2)c1 (centres unmarked) [Example 136, 3-(3-((4-(Cyclohexylmethyl)-1H-imidazol-1-yl)methyl)-4-methylphenyl)-3-(1,4-dimethyl-1H-benzo[d][1,2,3]triazol-5-yl)propanoic Acid]	7.00 to 8.00
Cc1ccc(C(CC(=O)O)c2ccc3c(nnn3C)c2C)cc1Cn1nc(CC2CCCCC2)nc1C (centres unmarked) [Example 137, 3-(3-((3-(Cyclohexylmethyl)-5-methyl-1H-1,2,4-triazol-1-yl)methyl)-4-methylphenyl)-3-(1,4-dimethyl-1H-benzo[d][1,2,3]triazol-5-yl)propanoic Acid]	6.00 to 7.00
Cc1ccc(C(c2ccc3c(nnn3C)c2C)C(C)(C)C(=O)O)cc1Cn1ccnc1CN1CCCOCC1 (centres unmarked) [Example 138, 3-(3-((2-((1,4-Oxazepan-4-yl)methyl)-1H-imidazol-1-yl)methyl)-4-methylphenyl)-3-(1,4-dimethyl-1H-benzo[d][1,2,3]triazol-5-yl)-2,2-dimethylpropanoic Acid]	5.00 to 6.00
Cc1ccc(C(c2ccc3c(nnn3C)c2C)C(C)(C)C(=O)O)cc1Cn1ccnc1CN1CCC(C)CC1 (centres unmarked) [Example 139, 3-(1,4-Dimethyl-1H-benzo[d][1,2,3]triazol-5-yl)-2,2-dimethyl-3-(4-methyl-3-((2-((4-methylpiperidin-1-yl)methyl)-1H-imidazol-1-yl)methyl)phenyl) propanoic acid]	5.00 to 6.00
CCC1CCN(Cc2nccn2Cc2cc(C(c3ccc4c(nnn4C)c3C)C(C)(C)C(=O)O)ccc2C)CC1 (centres unmarked) [Example 140, 3-(1,4-Dimethyl-1H-benzo[d][1,2,3]triazol-5-yl)-3-(3-((2-((4-ethylpiperidin-1-yl)methyl)-1H-imidazol-1-yl)methyl)-4-methylphenyl)-2,2-dimethylpropanoic acid, formic acid salt]	5.00 to 6.00
Cc1ccc(C(c2ccc3c(nnn3C)c2C)C(C)(C)C(=O)O)cc1Cn1ccnc1CN1CCOCC1 (centres unmarked) [Example 142, 3-(1,4-Dimethyl-1H-benzo[d][1,2,3]triazol-5-yl)-2,2-dimethyl-3-(4-methyl-3-((2-(morpholinomethyl)-1H-imidazol-1-yl)methyl)phenyl) propanoic acid, trifluoroacetic acid salt]	6.00 to 7.00
Cc1ccc(C(c2ccc3c(nnn3C)c2C)C(C)(C)C(=O)O)cc1Cn1ccnc1CC1CCCCC1 (centres unmarked) [Example 143, 3-(3-((2-(Cyclohexylmethyl)-1H-imidazol-1-yl)methyl)-4-methylphenyl)-3-(1,4-dimethy-1H-benzo[d][1,2,3]triazol-5-yl)-2,2-dimethylpropanoic acid, trifluoroacetic acid salt]	5.00 to 6.00
Cc1ccc(C(c2ccc3c(nnn3C)c2C)C(C)(C)C(=O)O)cc1Cn1ccnc1CN1CCO[C@H](C)C1 (stereo partly drawn) [Example 144, 3-(1,4-Dimethyl-1H-benzo[d][1,2,3]triazol-5-yl)-2,2-dlmethyl-3-(4-methyl-3-((2-(((R)-2-methylmorpholino)methyl)-1H-imidazol-1-yl)methyl)phenyl) propanoic acid, trifluoroacetic acid salt]	6.00 to 7.00
Cc1ccc(C(c2ccc3c(nnn3C)c2C)C(C)(C)C(=O)O)cc1Cn1ccnc1CC1CCOCC1 (centres unmarked) [Example 145, 3-(1,4-Dimethyl-1H-benzo[d][1,2,3]triazol-5-yl)-2,2-dimethyl-3-(4-methyl-3-((2-((tetrahydro-2H-pyran-4-yl)methyl)-1H-imidazol-1-yl)methyl)phenyl) propanoic acid, trifluoroacetic acid salt]	6.00 to 7.00
Cc1ccc(C(CC(=O)O)c2ccc3c(nnn3C)c2C)cc1Cn1ccnc1CC1CCCCCC1 (centres unmarked) [Example 146, 3-(3-((2-(Cycloheptylmethyl)-1H-imidazol-1-yl)methyl)-4-methylphenyl)-3-(1,4-dimethyl-1H-benzo[d][1,2,3]triazol-5-yl)propanoic acid, formic acid salt]	7.00 to 8.00
Cc1ccc(C(CC(=O)O)c2ccc3c(nnn3C)c2C)cc1Cn1ccnc1CN1CCCCCC1 (centres unmarked) [Example 147, 3-(3-((2-(Azepan-1-ylmethyl)-1H-imidazol-1-yl)methyl)-4-methylphenyl)-3-(1,4-dimethyl-1H-benzo[d][1,2,3]triazol-5-yl)propanoic acid, formic acid salt]	5.00 to 6.00
Cc1ccc(C(CC(=O)O)c2ccc3c(nnn3C)c2C)cc1Cn1ccnc1CC1CCCC1 (centres unmarked) [Example 148, 3-(3-((2-(Cyclopentylmethyl)-1H-imidazol-1-yl)methyl)-4-methylphenyl)-3-(1,4-dimethyl-1H-benzo[d][1,2,3]triazol-5-yl)propanoic acid]	6.00 to 7.00
Cc1ccc(C(CC(=O)O)c2ccc3c(nnn3C)c2C)cc1Cn1ccnc1CN1CCC(F)(F)CC1 (centres unmarked) [Example 149, 3-(3-((2-((4,4-Difluoropiperidin-1-yl)methyl)-1H-imidazol-1-yl)methyl)-4-methylphenyl)-3-(1,4-dimethyl-1H-benzo[d][1,2,3]triazol-5-yl)propanoic acid]	6.00 to 7.00
Cc1ccc([C@@H](c2ccc3c(nnn3C)c2C)C(C)(C)C(=O)O)cc1Cn1ccnc1CN1CCCCC1 [Example 150, (S)-3-(1,4-Dimethyl-1H-benzo[d][1,2,3]triazol-5-yl)-2,2-dimethyl-3-(4-methyl-3-((2-(piperidin-1-ylmethyl)-1H-imidazol-1-yl)methyl)phenyl) propanoic acid]	> 9.00
CCC1CCN(Cc2nccn2Cc2cc([C@H](c3ccc4c(nnn4C)c3C)C(C)C(=O)O)ccc2C)CC1 (stereo partly drawn) [Example 152, (3R)-3-(1,4-Dimethyl-1H-benzo[d][1,2,3]triazol-5-yl)-3-(3-((2-((4-ethylpiperidin-1-yl)methyl)-1H-imidazol-1-yl)methyl)-4-methylphenyl)-2-methylpropanoic Acid, Trifluoroacetic Acid Salt]	6.00 to 7.00
Cc1ccc(C(CC(=O)O)c2ccc3c(nnn3C)c2C)cc1Cn1ccnc1CN1CCCC1 (centres unmarked) [Example 153, 3-(1,4-Dimethyl-1H-benzo[d][1,2,3]triazol-5-yl)-3-(4-methyl-3-((2-(pyrrolidin-1-ylmethyl)-1H-imidazol-1-yl)methyl)phenyl)propanoic Acid, Formic Acid Salt]	5.00 to 6.00
Cc1ccc(C(CC(=O)O)c2ccc3c(nnn3C)c2C)cc1Cn1ccnc1CN1CCCCC1 (centres unmarked) [Example 154, 3-(1,4-dimethyl-1H-benzo[d][1,2,3]triazol-5-yl)-3-(4-methyl-3-((2-(piperidin-1-ylmethyl)-1H-imidazol-1-yl)methyl)phenyl)propanoic Acid, Trifluoroacetic Acid Salt]	6.00 to 7.00

Reference: patent US10604509B2, “Nrf2 regulators” (GlaxoSmithKline Intellectual Property Development Limited, priority 2015, dated 2020)
